According to patent publication US11370774B2, “Substituted benzofuran, benzopyrrole, benzothiophene, and structurally related complement inhibitors” (BioCryst Pharmaceuticals, Inc., priority 2018, dated 2022):

Molecular target: Factor D (Homo sapiens (Human), UniProt P00746)
Experiment: Factor D esterolytic assay (Z-Lys-SBzl substrate, DTNB, 405 nm)
Assay type: biochemical
Conditions: Z-Lys-SBzl 1.29 mM, pH 7.5, 10% DMSO, tested a minimum of three times, read-out: Measured Ki (IC50) Value for Compounds: IC50
Procedure, shortened: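 Human Factor D ([…]) with 1.29 mM Z-Lys-SBzl in 100 mM HEPES, 500 mM NaCl, pH 7.5, 10% DMSO; substrate added immediately or after room-temperature preincubation. Released thiol reacted with DTNB, rate followed at 405 nm for 600 sec, 690 nm background subtracted. IC50 from percent inhibition versus uninhibited rate, n≥3.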

Sequence of Factor D (P00746 26-253): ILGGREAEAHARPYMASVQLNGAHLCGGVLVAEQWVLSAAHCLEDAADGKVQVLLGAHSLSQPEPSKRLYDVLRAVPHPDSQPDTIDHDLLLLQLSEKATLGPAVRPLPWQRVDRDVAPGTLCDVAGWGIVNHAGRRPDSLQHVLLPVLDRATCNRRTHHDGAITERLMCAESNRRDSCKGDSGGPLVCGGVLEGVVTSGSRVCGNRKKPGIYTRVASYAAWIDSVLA

Row | SMILES | IC50
1 | COc1c(C(=O)Nc2ccccc2CC(=O)O)cc(-c2ccnc(CN)c2F)c2occc12 [Compound 334d, 2-(2-(7-(2-(aminomethyl)-3-fluoropyridin-4-yl)-4-methoxybenzofuran-5-carboxamido)phenyl)acetic acid] | 1 to 10 µM
2 | NCc1cc(-c2cc(COc3ccccc3CC(=O)O)cc3ccoc23)c2occc2c1 [Compound 335d, 2-(2-((5′-(aminomethyl)-[7,7′-bibenzofuran]-5-yl)methoxy)phenyl)acetic acid] | > 10 µM
3 | Cc1ccc(CC(=O)O)c(OCc2cc(-c3cccc(CN)c3F)c3ccn(C(C)C)c3c2)c1 [Compound 353b, 2-(2-((4-(3-(aminomethyl)-2-fluorophenyl)-1-isopropyl-1H-indol-6-yl)methoxy)-4-methylphenyl)acetic acid] | < 1 µM
4 | Cc1ccc(CC(=O)O)c(OCc2cc(-c3ccnc(CN)c3)c3ccn(C(C)C)c3c2)c1 [Compound 354c, 2-(2-((4-(2-(aminomethyl)pyridin-4-yl)-1-isopropyl-1H-indol-6-yl)methoxy)-4-methylphenyl)acetic acid] | < 1 µM
5 | Cc1ccc(CC(=O)O)c(OCc2cc(-c3ccnc(CN)c3F)c3ccn(C(C)C)c3c2)c1 [Compound 355c, 2-(2-((4-(2-(aminomethyl)-3-fluoropyridin-4-yl)-1-isopropyl-1H-indol-6-yl)methoxy)-4-methylphenyl)acetic acid] | < 1 µM
6 | COc1ccc(CC(=O)O)c(OCc2cc(-c3cccc(CN)c3)c3ccn(C(C)C)c3c2)c1 [Compound 356c, 2-(2-((4-(3-(aminomethyl)phenyl)-1-isopropyl-1H-indol-6-yl)methoxy)-4-methoxyphenyl)acetic acid] | < 1 µM
7 | COc1ccc(CC(=O)O)c(OCc2cc(-c3cccc(CN)c3F)c3ccn(C(C)C)c3c2)c1 [Compound 357b, 2-(2-((4-(3-(aminomethyl)-2-fluorophenyl)-1-isopropyl-1H-indol-6-yl)methoxy)-4-methoxyphenyl)acetic acid] | < 1 µM
8 | Cc1ccc(CC(=O)O)c(OCc2cc(-c3cccc(CN)c3)c3ccn(C)c3c2)c1 [Compound 358c, 2-(2-((4-(3-(aminomethyl)phenyl)-1-methyl-1H-indol-6-yl)methoxy)-4-methylphenyl)acetic acid] | < 1 µM
9 | Cc1ccc(CC(=O)O)c(OCc2cc(-c3cccc(CN)c3F)c3ccn(C)c3c2)c1 [Compound 359b, 2-(2-((4-(3-(aminomethyl)-2-fluorophenyl)-1-methyl-1H-indol-6-yl)methoxy)-4-methylphenyl)acetic acid] | < 1 µM
10 | CC(=O)Nc1ccc(OCc2cc(-c3cccc(CN)c3)c3occc3c2)c(CC(=O)O)c1 [Compound 360c, 2-(5-acetamido-2-((7-(3-(aminomethyl)phenyl)benzofuran-5-yl)methoxy)phenyl)acetic acid] | < 1 µM
11 | NCc1cccc(-c2cc(COc3cc(CO)ccc3CC(=O)O)cc3ccoc23)c1 [Compound 361c, 2-(2-((7-(3-(aminomethyl)phenyl)benzofuran-5-yl)methoxy)-4-(hydroxymethyl)phenyl)acetic acid] | < 1 µM
12 | NCc1cccc(-c2cc(COc3ccccc3CC(=O)O)cc3c2ccn3Cc2ccccc2)c1 [Compound 362e, 2-(2-((4-(3-(aminomethyl)phenyl)-1-benzyl-1H-indol-6-yl)methoxy)phenyl)acetic acid] | < 1 µM
13 | NCc1cccc(-c2cc(COc3cc(F)ccc3CC(=O)O)cc3ccoc23)c1F [Compound 363b, 2-(2-((7-(3-(aminomethyl)-2-fluorophenyl)benzofuran-5-yl)methoxy)-4-fluorophenyl)acetic acid] | < 1 µM
14 | NCc1nccc(-c2cc(COc3cc(F)ccc3CC(=O)O)cc3ccoc23)c1F [Compound 364d, 2-(2-((7-(2-(aminomethyl)-3-fluoropyridin-4-yl)benzofuran-5-yl)methoxy)-4-fluorophenyl)acetic acid] | < 1 µM
15 | NCc1cc(-c2cc(COc3cc(F)ccc3CC(=O)O)cc3ccoc23)ccn1 [Compound 365f, 2-(2-((7-(2-(aminomethyl)pyridin-4-yl)benzofuran-5-yl)methoxy)-4-fluorophenyl)acetic acid] | < 1 µM
16 | Cc1ccc(CC(=O)O)c(OCc2cc(-c3ccnc(CN)c3F)c3ccn(C)c3c2)c1 [Compound 366d, 2-(2-((4-(2-(aminomethyl)-3-fluoropyridin-4-yl)-1-methyl-1H-indol-6-yl)methoxy)-4-methylphenyl)acetic acid] | < 1 µM

Second part, the molecule after the results:

Row | IC50 | SMILES
17 | < 1 µM | CC(=O)c1ccc(OCc2cc(-c3cccc(CN)c3)c3occc3c2)c(CC(=O)O)c1 [Compound 330c, 2-(5-acetyl-2-((7-(3-(aminomethyl)phenyl)benzofuran-5-yl)methoxy)phenyl)acetic acid]
18 | < 1 µM | NCc1cccc(-c2cc(COc3ccc(CN)cc3CC(=O)O)cc3ccoc23)c1 [Compound 331c, 2-(5-(aminomethyl)-2-((7-(3-(aminomethyl)phenyl)benzofuran-5-yl)methoxy)phenyl)acetic acid]
19 | < 1 µM | NCc1cccc(-c2cc(COc3ccccc3CC(=O)O)cc3[nH]c(C(F)(F)F)cc23)c1 [Compound 332e, 2-(2-((4-(3-(aminomethyl)phenyl)-2-(trifluoromethyl)-1H-indol-6-yl)methoxy)phenyl)acetic acid]
20 | < 1 µM | Cc1oc2c(-c3cccc(CN)c3)cc(COc3ccccc3CC(=O)O)cc2c1C [Compound 333g, 2-(2-((7-(3-(aminomethyl)phenyl)-2,3-dimethylbenzofuran-5-yl)methoxy)phenyl)acetic acid]
21 | < 1 µM | NCc1cc(-c2cc(COc3ccccc3CC(=O)O)cc3sc(Cl)cc23)ccn1 [Compound 336c, 2-(2-((4-(2-(aminomethyl)pyridin-4-yl)-2-chlorobenzo[b]thiophen-6-yl)methoxy)phenyl)acetic acid]
22 | < 1 µM | NCc1cccc(-c2cc(COc3ccccc3CC(=O)O)cc3sc(Cl)cc23)c1F [Compound 337b, 2-(2-((4-(3-(aminomethyl)-2-fluorophenyl)-2-chlorobenzo[b]thiophen-6-yl)methoxy)phenyl)acetic acid]
23 | < 1 µM | NCc1nccc(-c2cc(COc3ccccc3CC(=O)O)cc3sc(Cl)cc23)c1F [Compound 338c, 2-(2-((4-(2-(aminomethyl)-3-fluoropyridin-4-yl)-2-chlorobenzo[b]thiophen-6-yl)methoxy)phenyl)acetic acid]
24 | < 1 µM | NCc1cc(-c2cc(COc3ccccc3CC(=O)O)cc3ccoc23)cs1 [Compound 339c, 2-(2-((7-(5-(aminomethyl)thiophen-3-yl)benzofuran-5-yl)methoxy)phenyl)acetic acid]
25 | < 1 µM | Nc1c[nH]c2c(-c3cc(COc4ccccc4CC(=O)O)cc4ccoc34)cccc12 [Compound 341e, 2-(2-((7-(3-amino-1H-indol-7-yl)benzofuran-5-yl)methoxy)phenyl)acetic acid]
26 | < 1 µM | Cc1ccc(CC(=O)O)c(OCc2cc(-c3ccnc(CN)c3F)c3occc3c2F)c1 [Compound 342e, 2-(2-((7-(2-(aminomethyl)-3-fluoropyridin-4-yl)-4-fluorobenzofuran-5-yl)methoxy)-4-methylphenyl)acetic acid]
27 | < 1 µM | Cc1ccc(CC(=O)O)c(OCc2cc(-c3ccnc(CN)c3F)c3occ(C(F)(F)F)c3c2)c1 [Compound 343e, 2-(2-((7-(2-(aminomethyl)-3-fluoropyridin-4-yl)-3-(trifluoromethyl)benzofuran-5-yl)methoxy)-4-methylphenyl)acetic acid]
28 | < 1 µM | COCCOCCOCCOCc1cc2cc(COc3ccccc3CC(=O)O)cc(-c3cccc(CN)c3)c2o1 [Compound 344f, 2-(2-((7-(3-(aminomethyl)phenyl)-2-(2,5,8,11-tetraoxadodecyl)benzofuran-5-yl)methoxy)phenyl)acetic acid]
29 | < 1 µM | Cc1ccc(CC(=O)O)c(OCc2cc(-c3cccc(CN)c3)c3occ(C(F)(F)F)c3c2)c1 [Compound 345b, 2-(2-((7-(3-(aminomethyl)phenyl)-3-(trifluoromethyl)benzofuran-5-yl)methoxy)-4-methylphenyl)acetic acid]
30 | < 1 µM | Cc1ccc(CC(=O)O)c(OCc2cc(-c3ccnc(CN)c3)c3occc3c2F)c1 [Compound 346c, 2-(2-((7-(2-(aminomethyl)pyridin-4-yl)-4-fluorobenzofuran-5-yl)methoxy)-4-methylphenyl)acetic acid]
31 | < 1 µM | Cc1ccc(CC(=O)O)c(OCc2cc(-c3cccc(CN)c3)c3occc3c2F)c1 [Compound 347b, 2-(2-((7-(3-(aminomethyl)phenyl)-4-fluorobenzofuran-5-yl)methoxy)-4-methylphenyl)acetic acid]
32 | < 1 µM | Cc1ccc(CC(=O)O)c(OCc2cc(-c3cccc(CN)c3F)c3occc3c2F)c1 [Compound 348b, 2-(2-((7-(3-(aminomethyl)-2-fluorophenyl)-4-fluorobenzofuran-5-yl)methoxy)-4-methylphenyl)acetic acid]
33 | < 1 µM | Cc1ccc(CC(=O)O)c(OCc2cc(-c3cccc(CN)c3F)c3occ(C(F)(F)F)c3c2)c1 [Compound 349b, 2-(2-((7-(3-(aminomethyl)-2-fluorophenyl)-3-(trifluoromethyl)benzofuran-5-yl)methoxy)-4-methylphenyl)acetic acid]
34 | < 1 µM | COc1ccc(OCc2cc(-c3cccc(CN)c3)c3occc3c2)c(CC(=O)O)c1 [Compound 350e, 2-(2-((7-(3-(aminomethyl)phenyl)benzofuran-5-yl)methoxy)-5-methoxyphenyl)acetic acid]
35 | < 1 µM | NCc1cccc(-c2cc(COc3ccccc3CC(=O)O)cc3c2ccn3-c2ccccc2)c1 [Compound 351f, 2-(2-((4-(3-(aminomethyl)phenyl)-1-phenyl-1H-indol-6-yl)methoxy)phenyl)acetic acid]
36 | < 1 µM | Cc1ccc(CC(=O)O)c(OCc2cc(-c3cccc(CN)c3)c3ccn(C(C)C)c3c2)c1 [Compound 352c, 2-(2-((4-(3-(aminomethyl)phenyl)-1-isopropyl-1H-indol-6-yl)methoxy)-4-methylphenyl)acetic acid]
